Tests used:
E. coli = assay: MIC shift assay of antibiotics (broth microdilution); type: cell-based; settings: E. coli (SCR1); compound concentration 10 μM; MIC of colistin alone 0.5-1.0 μg/mL
Experimental: Minimum inhibitory concentration (MIC) shift assays were performed to determine if the test compounds could alter the MIC of existing antibacterial drugs (e.g., ciprofloxacin and colistin) for E. coli, Acinetobacter baumannii, Klebsiella pneumoniae, Pseudomonas aeruginosa, and Enterobacter cloacae. The MIC shift assay is based on the standard broth microdilution MIC determination protocol of Wiegand et al, Nat Protoc. 3(2):163-75 (2008), with slight modifications that allow for the screening of up to seven test compounds in a single plate.
On the day before an assay, bacteria were grown overnight in cation-adjusted Mueller Hinton broth (CAMHB; Teknova, Hollister, Calif.) at 37° C. in an orbital shaker and sub-cultured at a 1:200 dilution the following morning. The cells were grown to OD600=0.5 to 0.8 and then diluted to OD600=0.01. From a serial dilution of each antibiotic at (50 μL of 2× concentrated stock solutions) several concentrations were added to the wells of a sterile, transparent round-bottom 96-well plate (Phenix Research Products, Candler, N.C.), and diluted cells (50 μL) were added to the plates for a starting OD600 of 0.005. Then, a test compound (2.5 μL) was added to each well to give a final concentration of 4 or 10 μM. A row of wells lacking test compound but containing the antibiotic was used to determine the MIC of that antibiotic alone. A column of wells lacking both antibiotic and test compound served as a growth control, and an additional column containing only CAMHB was included as a sterile blank control.
The plates were incubated for 18 to 20 h at 37° C. in an orbital shaker, and the cell density (OD600) was determined the following day in a microplate reader (PolarStar Optima, BMG Labtech). The MIC shift was determined by comparing the MIC of the antibiotic alone to the MIC of the antibiotic plus test compound.

[1] = tested on: Acinetobacter baumannii (Ab23); assay: as above; type: cell-based; settings: Acinetobacter baumannii (Ab23); compound concentration 10 μM; MIC of colistin alone >8.0 μg/mL
In short: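 Following a modified Wiegand broth microdilution protocol, colistin serial dilutions with or without test compound were set up in round-bottom 96-well plates and inoculated with A. baumannii cells to a starting OD600 of 0.005. Plates were shaken at 37° C. for 18 to 20 h and read at OD600. The fold shift was calculated from colistin MIC alone versus colistin MIC with test compound, with growth and medium-only blank controls.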

E. coli RecA = molecular target: T1, E. coli RecA (Escherichia coli, UniProt P0A7G6); assay: RecA ssDNA-dependent ATPase assay (coupled enzyme, amplex red fluorescence); type: biochemical; settings: read-out: RecA Inhibition IC50
T1 construct: purchased New England BioLabs
T1 sequence (P0A7G6 2-353): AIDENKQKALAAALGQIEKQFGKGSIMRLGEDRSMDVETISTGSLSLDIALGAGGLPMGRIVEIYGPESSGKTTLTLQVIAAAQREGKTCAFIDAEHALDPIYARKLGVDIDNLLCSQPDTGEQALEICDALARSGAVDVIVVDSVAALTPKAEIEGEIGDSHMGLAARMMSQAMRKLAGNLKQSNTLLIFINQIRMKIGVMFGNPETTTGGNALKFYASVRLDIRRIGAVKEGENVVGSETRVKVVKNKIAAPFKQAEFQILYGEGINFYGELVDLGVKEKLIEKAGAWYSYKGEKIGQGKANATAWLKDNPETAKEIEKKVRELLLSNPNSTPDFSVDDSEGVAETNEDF
Experimental: A coupled enzyme ATPase assay, similar to that described in Wigle and Singleton, BioorgMed Chem Lett. 17(12):3249-53 (2007), was used to screen compounds for in vitro activity against RecA. A solution of the compound to be tested dissolved in DMSO (5 μL of 20× concentrated stock) was added to 90 μL of a master mix containing the following components at their final concentrations in the appropriate wells of flat-bottomed black 96-well plates (Corning Life Sciences, Corning N.Y.) at 37° C.: 0.5 μM E. coli RecA (New England BioLabs), 10 mM Mg(OAc)2 (Sigma, St. Louis, Mo.), 500 μM ATP (Sigma), 250 μM phosphoenolpyruvate (Sigma), 100 μM amplex red (Invitrogen, Carlsbad, Calif.), 1 U/mL pyruvate kinase (Sigma), 1 U/mL pyruvate oxidase (Thermo Fisher Scientific, Waltham, Mass.), 1 U/mL horseradish peroxidase (Sigma), and 20 mM Tris*HOAc, pH 7.5 (Boston BioProducts, Ashland, Mass.). The total volume of the assay solution was 100 μL. […]
The fluorescence emission at 595 nm (excitation at 485 nm) was then recorded using a microplate reader (PolarStar Optima, BMG Labtech, Ortenberg, Germany) for approximately 25 min to establish the baseline fluorescence.
To initiate the reactions, poly(dT) (5 μL of a 100 μM-nts stock solution) was added to each well to give a final DNA concentration of 5 μM-nts. Fluorescence emission was recorded for an additional 90 min. […]

[2] = tested on: SOS response (sulAp-lacZ reporter) in E. coli strain DM4000; assay: Ciprofloxacin-induced SOS reporter gene expression assay (sulAp-lacZ, Beta-Glo luminescence, with or without PMBN); type: cell-based; settings: Escherichia coli; in the presence of PMBN (4 μg/mL); read-out: SOS Attenuation EC50
From the text: An SOS reporter gene assay was used to assess the ability of the RecA inhibitor compounds to block the SOS response to ciprofloxacin. Details of the testing methodology are provided in, for example, Sandler et al., Genetics 143(1):5-13 (1996) and McCool et al., Mol Microbiol. 53(5):1343-57 (2004). The SOS genes are regulated by the transcriptional repressor LexA and the DNA-binding protein RecA. When DNA damage occurs, RecA binds to ssDNA, and this protein-DNA complex then induces the autocleavage of LexA, resulting in the depression of LexA-bound promoters. […] Therefore, a reporter construct wherein the sulA promoter (sulAp) is fused to the lacZ gene can be used to measure the level of the SOS response in cells using an assay for β-galactosidase activity.
E. coli strain DM4000 contains the sulAp-lacZ reporter gene inserted at the X attachment site. Two additional strains containing the same sulAp-lacZ reporter gene were used as RecA-independent controls in this assay. JC19098 encodes an un-cleaveable LexA repressor; therefore, the sulA promoter-dependent β-galactosidase expression is always off. […]
Luminescence was measured on a plate reader with the gain adjustment set to 40% of the maximum on a well with one of the highest luminescence values on the plate (e.g., a well containing ciprofloxacin without inhibitor). […]

## CN(C)CCCNc1nc(/C=C/c2ccc(Cl)c(Cl)c2)nc2c(C(F)(F)F)cccc12 [MLJ-02-070A]
E. coli
  Colistin MIC Shift: 16-32X
[1]
  Colistin MIC Shift: >128X
E. coli RecA
  IC50: 12 µM
[2]
  EC50: < 6 µM

## Clc1ccc(/C=C/c2c[nH]c3ccc(Br)cc23)cc1Cl [MLJ-02-086B]
E. coli
  Colistin MIC Shift: 8-16X
[1]
  Colistin MIC Shift: >64X
E. coli RecA
  IC50: 15 µM
[2]
  EC50: 8 µM
